Read-outs that look alike come from different tables or passages of the source.

The record followed here is US10662146B2, “Prodrugs of fencamfamine” (Praxis Bioresearch, LLC, priority 2015, dated 2020).

The nature of the data set: Single dose intravenous PK study in male Sprague Dawley rats (plasma by LC-MS/MS). The class given is in vivo. The note with it: for Cmax / AUC(0-inf) / AUC(0-t) / clearance / MRT last / half-life / Vd: iv, 2 mg/kg; for Plasma concentration of PRX-002 (−) Isomer: PRX-002 (−) Isomer IV 2 mg/kg b.w. The procedure:
We describe here PK results of prodrugs of PRX-002 (−) or (+) isomers. All doses of prodrugs were administered such that they were equivalent to 5 mg/kg of PRX-002 (−) or (+) for oral studies and 2 mg/kg PRX-002 (−) or (+) for intravenous studies in male Sprague-Dawley (MSD) rats. Higher doses of up to 10 or 15 mg/kg [again equivalent to PRX-002 (−)] were used in some studies (as specified)]. Formulation preparation, dose administration and time of sample collection was as follows.
(§1) Adult male Sprague Dawley Rats aged 8-10 weeks were used for the study. Animals were administered the test item by Intravenous bolus route with a dose of 2 mg/kg body weight at dose volume of 5.0 mL/kg body weight. Under mild isoflurane anesthesia, blood specimens were collected by retro-orbital puncture method using capillary tubes into pre-labeled tubes containing anticoagulant (K2EDTA-2 mg/mL blood) during the next 24 hours of post dose as mentioned in below table. For blood sampling at multiple time points, right and left eyes were used alternatively for blood collection. Collected blood specimens were centrifuged at 4000 rpm, 4° C. for 10 minutes and plasma were separated and stored at −80° C. until analysis.
Blood was collected as outlined in Table 39.2 (IV).
Test item PRX-P4-003 was weighed and transferred to a graduated tube. Then 600 μL of PEG 400 (v/v) was added and vortex mixed thoroughly until the test item was completely dissolved. Then 1.800 mL of Hydroxypropyl-β-cyclodextrin (HPβCD, 50% w/v) was added and vortex mixed thoroughly. The final volume was then made up to 3.600 mL with sterile water for injection (SWFI, v/v) with final formulation strength of 5.16 mgA/mL. […] This formulation was freshly prepared before the administration to animals.
as §1, with “administered with a PRX-P4-003” for “administered the test item”, “of 10” for “of 2”, “of 5” for “of 5.0”
Test item PRX-P5-006 was weighed and transferred to a graduated tube. Then 500 μL of DMSO (v/v) was added vortex mixed thoroughly until the test item was completely dissolved. Then 4000 μL of Hydroxypropyl-β-cyclodextrin (HPβCD, 50% w/v) was added and vortex mixed thoroughly. Then 2500 μL of PEG 400 (v/v) was added and vortex mixed thoroughly. The final volume was then made up to 10000 μL with sterile water for injection (SWFI, v/v) with final formulation strength of 3.97 mg/mL. […] This formulation was freshly prepared before the administration to animals.
as §1, with “administered with a PRX-P5-006” for “administered the test item”, “of 15” for “of 2”, “of 10” for “of 5.0”
The plasma concentrations of fencamfamine were measured by LC-MS/MS over time. […] The release of fencamfamine from the prodrugs varied depending on the chain length of the fatty acid linkers attached to fencamfamine. […]

The Cmax is the peak of the concentration-time curve. The term AUC denotes the area under the concentration-time curve, a measure of exposure. The term Tmax denotes the time from dosing to the highest level. Turning to `CCCCCCCCCCCCCCCCCC(=O)OCOC(=O)N(CC)C1C2CCC(C2)C1c1ccccc1` (single isomer, unassigned) [PRX-P4-003, N-(Octadecanoyloxymethoxycarbonyl)-(−)-N-ethyl-3-phenylbicyclo[2.2.1]heptan-2-amine], the “Plasma concentration of PRX-P4-003” value by setting is: (PRX-P4-003 IV 2 mg/kg b.w., 0.08 h, mean) 171.96; (PRX-P4-003 IV 2 mg/kg b.w., 0.25 h, mean) 47.94; (PRX-P4-003 IV 2 mg/kg b.w., 0.50 h, mean) 26.73; (PRX-P4-003 IV 2 mg/kg b.w., 1.00 h, mean) 20.03; (PRX-P4-003 IV 2 mg/kg b.w., 2.00 h, mean) 18.29; (PRX-P4-003 IV 2 mg/kg b.w., 4.00 h, mean) 14.23. The “Plasma concentration of PRX-P4-003” value by setting is: (PRX-P4-003 IV 2 mg/kg b.w., 6.00 h, mean) 10.72; (PRX-P4-003 IV 2 mg/kg b.w., 24.00 h, mean) 0.00; (PRX-P4-003 IV 10 mg/kg b.w., 0.08 h, mean) 199.64; (PRX-P4-003 IV 10 mg/kg b.w., 0.25 h, mean) 27.98; (PRX-P4-003 IV 10 mg/kg b.w., 0.50 h, mean) 8.96; (PRX-P4-003 IV 10 mg/kg b.w., 1.00 h, mean) 0.00. In addition, the “Plasma concentration of PRX-P4-003” value is, setting by setting: (PRX-P4-003 IV 10 mg/kg b.w., 2.00 h, mean) 0.00; (PRX-P4-003 IV 10 mg/kg b.w., 4.00 h, mean) 0.00; (PRX-P4-003 IV 10 mg/kg b.w., 6.00 h, mean) 0.00; (PRX-P4-003 IV 10 mg/kg b.w., 24.00 h, mean) 0.00. Further, the “AUC% extrap of PRX-P4-003” value (PRX-P4-003 IV 2 mg/kg, mean) is 32.475 ± 83.3890%. For the same compound, the “Conversion of pro-drug form to active form PRX-002(−) isomer in plasma” value (PRX-P4-003 IV administration (FIG. 2)) is “minimal amounts”. Moreover, the “Amount of parent PRX-002 (−) generated” value (PRX-P4-003 IV, even at higher dose of 10 mg/kg (FIG. 3)) is “very limited amount”. Also, the Cmax is 172 ± 62.6 ng/mL (male, Sprague Dawley, rat, plasma, IV 2 mg/kg [equivalent to PRX-002 (−)], analyte: prodrug in plasma, mean, read-out: IV PK Parameters Cmax, Prodrug) and 172 ± 62.6 ng/mL (male, Sprague-Dawley, rat, plasma, PRX-P4-003 IV 2 mg/kg, mean, read-out: Cmax of PRX-P4-003). Further, the AUC (male, Sprague Dawley, rat, IV 2 mg/kg [equivalent to PRX-002 (−)], analyte: prodrug in plasma, mean, read-out: IV PK Parameters AUC, Prodrug) was 133 ± 32.5 ng·h/mL. In addition, the Tmax was determined as 4.8 min (male, Sprague Dawley, rat, IV 2 mg/kg [equivalent to PRX-002 (−)], analyte: prodrug in plasma, mean, read-out: IV PK Parameters Tmax, Prodrug) and 4.8 min (male, Sprague-Dawley, rat, plasma, PRX-P4-003 IV 2 mg/kg, mean, read-out: Tmax of PRX-P4-003). For the same compound, under “male, Sprague-Dawley, rat, plasma, PRX-P4-003 IV 2 mg/kg, mean, read-out: AUCinf of PRX-P4-003”, the AUC(0-inf) came to 216 ± 83.4 ng·h/mL. Also, where the note is “male, Sprague-Dawley, rat, plasma, PRX-P4-003 IV 2 mg/kg, mean, read-out: AUClast of PRX-P4-003”, the AUC(0-t) was determined as 133 ± 32.5 ng·h/mL. The clearance (male, Sprague-Dawley, rat, plasma, PRX-P4-003 IV 2 mg/kg, mean, read-out: CL of PRX-P4-003) came out at 172 ± 69.3 mL/min/kg. Moreover, under “male, Sprague-Dawley, rat, plasma, PRX-P4-003 IV 2 mg/kg, mean, read-out: MRTlast of PRX-P4-003”, the MRT last turned out to be 1.84 ± 0.713 h. Further, the half-life (male, Sprague-Dawley, rat, plasma, PRX-P4-003 IV 2 mg/kg, mean, read-out: T1/2 of PRX-P4-003 (converted)) was 3.35 ± 2.18 h. For the same compound, the Vd (male, Sprague-Dawley, rat, plasma, PRX-P4-003 IV 2 mg/kg, mean, read-out: Vss of PRX-P4-003) came to 42 ± 19.9 L/kg.
In the case of `CCN[C@@H]1[C@@H]2CC[C@@H](C2)[C@H]1c1ccccc1` [PRX-002 (−) Isomer, (1R,2R,3S,4S)—N-Ethyl-3-phenylbicyclo[2.2.1]heptan-2-amine, reference compound], the “Plasma concentration of PRX-002 (−) Isomer” value runs as follows: (0.08 h, mean) 142.01; (0.25 h, mean) 112.59; (0.50 h, mean) 81.21; (1.00 h, mean) 58.82; (2.00 h, mean) 53.05; (4.00 h, mean) 16.55. The “Plasma concentration of PRX-002 (−) Isomer” value (6.00 h, mean) was found to be 0.00 and the “Plasma concentration of PRX-002 (−) Isomer” value (24.00 h, mean) is recorded as 0.00. Further, the “AUC% extrap of PRX-002 (−) Isomer” value (PRX-002 (−) Isomer IV 2 mg/kg, mean) is 14.056 ± 5.0710%. Under “male, Sprague Dawley, rat, plasma, PRX-002 (−) Isomer IV 2 mg/kg, mean, read-out: AUCinf of PRX-002 (−) Isomer”, the AUC(0-inf) was 256 ± 44.3 ng·h/mL. The AUC(0-t) (male, Sprague Dawley, rat, plasma, PRX-002 (−) Isomer IV 2 mg/kg, mean, read-out: AUClast of PRX-002 (−) Isomer) came out at 219 ± 23.9 ng·h/mL. Moreover, the clearance (male, Sprague Dawley, rat, plasma, PRX-002 (−) Isomer IV 2 mg/kg, mean, read-out: CL of PRX-002 (−) Isomer) was 133 ± 21 mL/min/kg. The Cmax (male, Sprague Dawley, rat, plasma, PRX-002 (−) Isomer IV 2 mg/kg, mean, read-out: Cmax of PRX-002 (−) Isomer) worked out at 143 ± 1.75 ng/mL. Also, for the setting “male, Sprague Dawley, rat, plasma, PRX-002 (−) Isomer IV 2 mg/kg, mean, read-out: MRTlast of PRX-002 (−) Isomer”, the MRT last turned out to be 1.33 ± 0.118 h. For the setting “male, Sprague Dawley, rat, plasma, PRX-002 (−) Isomer IV 2 mg/kg, mean, read-out: T1/2 of PRX-002 (−) Isomer (converted)”, the half-life is 1.51 ± 0.223 h. For the same compound, the Vd (male, Sprague Dawley, rat, plasma, PRX-002 (−) Isomer IV 2 mg/kg, mean, read-out: Vss of PRX-002 (−) Isomer) was 15.7 ± 0.339 L/kg. Moreover, the Tmax (male, Sprague Dawley, rat, plasma, PRX-002 (−) Isomer IV 2 mg/kg, mean, read-out: Tmax of PRX-002 (−) Isomer) amounted to 8.22 ± 5.88 min.
